# What was measured:
# [1] = tested on: normal human astrocytes (NHA); test: Confocal imaging of astrocyte morphology after incubation in PBS (non-GABA conditions); type: cell-based; details: 500 μM in PBS, non-GABA environment; 72 h
# Procedure: To this end, we tested whether blocking the transport of GABA under experimental non-GABA extracellular conditions may impair the homeostasis of these cells. […] Afterward, the cells were stained to visualize actin filaments using confocal microscopy. […] Nevertheless, further kinetic studies are necessary to verify this hypothesis.
# NHA was grown on a coverslip in a 35 mm culture dish. After treatment, the cells were fixed (4% paraformaldehyde) and permeabilized (0.1% Triton X-100). Then, the samples were stained with Phalloidin-Atto 565 (Sigma-Aldrich, Inc.) according to the manufacturer’s protocol. Laser confocal microscope Nikon Eclipse Ti-E A1R-Si and Nikon NIS Elements AR software were used for cell imaging.
# [2] = target: T1, hBGT1 E52Y (Homo sapiens, UniProt P48065, E52Y); test: [3H]GABA uptake assay, hBGT1 mutant E52Y in tsA201 cells; type: cell-based
# T1 construct: host or cells: tsA201 cells (transformed HEK293), transient expression
# T1 sequence (P48065 1-614 E52Y): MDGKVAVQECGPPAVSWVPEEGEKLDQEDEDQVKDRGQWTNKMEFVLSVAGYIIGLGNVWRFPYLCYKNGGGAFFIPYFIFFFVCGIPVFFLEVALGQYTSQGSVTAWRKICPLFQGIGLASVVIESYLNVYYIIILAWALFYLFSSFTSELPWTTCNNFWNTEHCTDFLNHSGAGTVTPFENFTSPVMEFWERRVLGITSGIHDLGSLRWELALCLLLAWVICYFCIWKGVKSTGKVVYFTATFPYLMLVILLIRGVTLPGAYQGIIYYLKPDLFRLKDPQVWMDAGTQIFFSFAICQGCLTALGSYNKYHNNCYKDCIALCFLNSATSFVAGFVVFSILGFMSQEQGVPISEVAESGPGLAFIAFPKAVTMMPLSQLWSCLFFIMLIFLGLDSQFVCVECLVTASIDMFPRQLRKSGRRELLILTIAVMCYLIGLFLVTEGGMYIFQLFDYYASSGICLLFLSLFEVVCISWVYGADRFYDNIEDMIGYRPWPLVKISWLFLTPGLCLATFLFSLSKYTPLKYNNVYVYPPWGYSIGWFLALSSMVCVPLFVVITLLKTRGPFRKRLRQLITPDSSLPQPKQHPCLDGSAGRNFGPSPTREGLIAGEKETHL
# Procedure: To validate the molecular modeling, particularly the crucial interactions with the Glu52 and Gln299 residues, the activity of compound 9 was tested on the following hBGT1 mutants: E52A, E52Y, Q299L, and the double mutant E52A+Q299L (Figure 5 and Table 1).[14]
# The CHO cells were placed in 96-well plates (approximately 50,000 cells/well) for about 24 h before the experiment. […] After incubation, cells were washed 3 times with 100 μL/well ice-cold assay buffer, 150 μL/well MicroScint20 (PerkinElmer) was subsequently added before the plate was shaken for at least 1 h. The radioactivity of each well of the plate was measured on a TopCount NXT scintillation counter. […] Data presented are the pooled data of at least three independent experiments with three technical replicates if not stated otherwise in figure legends. Concentration–response curves were fitted by nonlinear regression to the sigmoidal concentration–response model with GraphPad Prism v 9.0.
# The tsA201 cell line (a transformed HEK293 cell line) has been described previously and was cultured accordingly.[20] The tsA201 cells used for transient expression of hBGT1 mutants were transfected with DNA constructs (8 μg per 10 cm plate) using 40 μL of PolyFect transfection reagent according to the manufacturer’s protocol (Qiagen). […]
# [3] = tested on: GABAA receptors; test: GABAA receptor [3H]-muscimol radioligand binding assay, rat cortical membranes; details: rat cortex
# Procedure: A 10 mM stock solution of the tested compound was prepared in DMSO. Serial dilutions of the compound were prepared in 96-well microplates in assay buffers using automated pipetting system epMotion 5070 (Eppendorf). Each compound was tested in 8 concentrations from 10^–3 to 10^–10 M (final concentration). Radioligand binding was performed using tissue rat cortex according to the previous procedure.[22] All assays were carried out in duplicates. 50 μL of working solution of the tested compounds, 50 μL of [^3H]-muscimol (final concentration 2.0 nM), and 150 μL of tissue suspension prepared in assay buffer (50 mM Tris-HCl, pH 7.4) were transferred to polypropylene 96-well microplate using 96-well pipetting station Rainin Liquidator (Mettler-Toledo). […] The microplate was covered with sealing tape, mixed, and incubated for 15 min at 4 °C. The reaction was terminated by rapid filtration through GF/B filter mate. Ten rapid washes with 200 μL of 50 mM Tris buffer (4 °C, pH 7.4) were performed using 96-well FilterMate harvester (PerkinElmer). The filter mates were dried at 37 °C in forced air fan incubator and then solid scintillator MeltiLex was melted on filter mates at 90 °C for 4 min. The radioactivity on the filter was measured in MicroBeta TriLux 1450 scintillation counter (PerkinElmer). […]
# [4] = target: T2, hGAT2 (Homo sapiens, UniProt Q9NSD5); test: [3H]GABA uptake assay, CHO cells stably expressing hGAT2; type: cell-based
# T2 construct: expressed in transfected cells
# T2 sequence (Q9NSD5 1-602): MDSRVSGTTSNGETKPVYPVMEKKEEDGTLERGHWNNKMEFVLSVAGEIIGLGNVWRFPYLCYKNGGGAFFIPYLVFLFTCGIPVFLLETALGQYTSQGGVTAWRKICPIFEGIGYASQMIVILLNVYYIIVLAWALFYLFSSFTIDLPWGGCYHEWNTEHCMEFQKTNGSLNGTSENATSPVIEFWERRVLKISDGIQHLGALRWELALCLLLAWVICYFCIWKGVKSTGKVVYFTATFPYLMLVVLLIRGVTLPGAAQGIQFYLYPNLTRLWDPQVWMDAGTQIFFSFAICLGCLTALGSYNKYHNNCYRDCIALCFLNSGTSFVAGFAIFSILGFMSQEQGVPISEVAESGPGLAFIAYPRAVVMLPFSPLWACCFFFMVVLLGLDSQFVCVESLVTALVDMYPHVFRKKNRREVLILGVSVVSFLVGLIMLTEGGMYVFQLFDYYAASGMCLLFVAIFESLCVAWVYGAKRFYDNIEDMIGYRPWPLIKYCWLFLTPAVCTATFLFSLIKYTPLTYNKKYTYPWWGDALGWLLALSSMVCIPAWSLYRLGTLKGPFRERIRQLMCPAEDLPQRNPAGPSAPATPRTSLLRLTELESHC
structure (smiles),measurement,setting,value
NC12CC(C(=O)O)(C1)C2 [Compound 9],astrocyte morphology (actin staining),[1],cell shrinkage and a loss of cell-to-cell contact
same,IC50,[2],> 1000 µM
same,activity at mutant compared with wild type hBGT1,[2]; E52Y vs wt,complete loss of activity
same,displacement of [3H]-muscimol,[3]; 100 μM,4%
same,Ki ± SEM,[3]; [3H]-muscimol 2.0 nM,no affinity ^a
same,IC50,[4],> 100 µM
same,inhibition at 100 µM,"[4]; CHO, read-out: inhibition of GABA uptake",~25%

# — publication PMC11587516 (ACS Chemical Neuroscience, 2024)
